# Results as given in ChEMBL document CHEMBL1147164, “Synthesis, stereochemistry and antimicrobial evaluation of some N-morpholinoacetyl-2,6-diarylpiperidin-4-ones” (2007).
# The source made the active and inactive calls. The calls are words filed in the database; no cut-off is given here.
# Legend:
# Escherichia coli [1] = test: Antibacterial activity against Escherichia coli after 24 hrs by twofold serial dilution method; assay type: functional
# Salmonella typhi [2] = test: Antibacterial activity against Salmonella typhi after 24 hrs by twofold serial dilution method; assay type: functional, Salmonella enterica subsp. enterica serovar Typhi; settings: Salmonella enterica
# Staphylococcus aureus = test: Antibacterial activity against Staphylococcus aureus after 24 hrs by twofold serial dilution method; assay type: functional
# Aspergillus flavus [3] = test: Antifungal activity against Aspergillus flavus after 72 to 96 hrs by twofold serial dilution method; assay type: functional
# Aspergillus niger = test: Antifungal activity against Aspergillus niger after 72 to 96 hrs by twofold serial dilution method; assay type: functional
# Candida albicans [4] = test: Antifungal activity against Candida albicans after 72 to 96 hrs by twofold serial dilution method; assay type: functional
# Rhizopus = test: Antifungal activity against Rhizopus sp. after 72 to 96 hrs by twofold serial dilution method; assay type: functional
# Pseudomonas aeruginosa = test: Antibacterial activity against Pseudomonas aeruginosa after 24 hrs by twofold serial dilution method; assay type: functional
# Aspergillus flavus [5] = test: Antifungal activity against Aspergillus flavus at 200 ug/ml after 72 to 96 hrs by twofold serial dilution method; assay type: functional, organism-based
# Escherichia coli [6] = test: Antibacterial activity against Escherichia coli at 200 ug/ml after 24 hrs by twofold serial dilution method; assay type: functional, organism-based
# Candida albicans [7] = test: Antifungal activity against Candida albicans at 200 ug/ml after 72 to 96 hrs by twofold serial dilution method; assay type: functional, organism-based
# Salmonella typhi [8] = test: Antibacterial activity against Salmonella typhi at 200 ug/ml after 24 hrs by twofold serial dilution method; assay type: functional, organism-based; settings: Salmonella enterica subsp. enterica serovar Typhi
SMILES,MIC (Escherichia coli [1]) [µg/mL],MIC (Salmonella typhi [2]) [µg/mL],MIC (Staphylococcus aureus) [µg/mL],MIC (Aspergillus flavus [3]) [µg/mL],MIC (Aspergillus niger) [µg/mL],MIC (Candida albicans [4]) [µg/mL],MIC (Rhizopus) [µg/mL],MIC (Pseudomonas aeruginosa) [µg/mL],Activity (Aspergillus flavus [5]),Activity (Escherichia coli [6]),Activity (Candida albicans [7]),Activity (Salmonella typhi [8])
O=C(O)c1cn(C2CC2)c2cc(N3CCNCC3)c(F)cc2c1=O [CIPROFLOXACIN],25,50,–,–,–,–,–,–,–,–,–,–
Cc1ccc(C2C(C)C(=O)C(C)C(c3ccc(C)cc3)N2C(=O)CN2CCOCC2)cc1 (stereo not drawn),25,6.25,50,25,50,50,25,6.25,–,–,–,–
CC1C(=O)C(C)C(c2ccccc2)N(C(=O)CN2CCOCC2)C1c1ccccc1 (stereo not drawn),100,50,50,50,25,50,12.5,25,–,–,–,–
O=C1CC(c2ccccc2)N(C(=O)CN2CCOCC2)C(c2ccccc2)C1 (stereo not drawn),–,100,200,–,200,–,100,100,inactive,inactive,inactive,–
C[C@@H]1[C@H](O)[C@@H](C)/C=C/C=C/C=C/C=C/C=C/C=C/C=C/[C@H](O[C@@H]2O[C@H](C)[C@@H](O)[C@H](N)[C@@H]2O)C[C@@H]2O[C@](O)(C[C@@H](O)C[C@@H](O)[C@H](O)CC[C@@H](O)C[C@@H](O)CC(=O)O[C@H]1C)C[C@H](O)[C@H]2C(=O)O [AMPHOTERICIN B],–,–,–,50,50,25,25,–,–,–,–,–
CCC1C(=O)CC(c2ccccc2)N(C(=O)CN2CCOCC2)C1c1ccccc1 (stereo not drawn),50,100,50,100,100,100,200,25,–,–,–,–
CC1C(=O)C(C)C(c2ccc(Cl)cc2)N(C(=O)CN2CCOCC2)C1c1ccc(Cl)cc1 (stereo not drawn),25,100,25,6.25,25,6.25,25,50,–,–,–,–
COc1ccc(C2C(C)C(=O)C(C)C(c3ccc(OC)cc3)N2C(=O)CN2CCOCC2)cc1 (stereo not drawn),12.5,25,6.25,100,50,100,50,12.5,–,–,–,–
COc1ccc(C2CC(=O)C(C)C(c3ccc(OC)cc3)N2C(=O)CN2CCOCC2)cc1 (stereo not drawn),100,50,50,12.5,50,25,6.25,25,–,–,–,–
CC1C(=O)CC(c2ccccc2)N(C(=O)CN2CCOCC2)C1c1ccccc1 (stereo not drawn),100,–,200,50,50,–,100,50,–,–,inactive,inactive
CC(C)C1C(=O)CC(c2ccccc2)N(C(=O)CN2CCOCC2)C1c1ccccc1 (stereo not drawn),100,200,100,100,50,50,25,50,–,–,–,–
